Test results: US8951976B2, “Progression inhibitor for disease attributed to abnormal accumulation of liver fat” (Kissei Pharmaceutical Co., Ltd., priority 2004, dated 2015)
Values belong to the molecule of their own block, whether it stands above or below them.

Assays:
[1] = target: T1, SGLT2 (Mus musculus, UniProt Q923I7); test: Test to confirm inhibitory effect on accumulation of liver lipids in KKAy mice bearing fatty liver; type: in vivo, KKA^y mice
T1 construct: Using KKA^y mice (KKAy/Ta Jcl, CLEA Japan, Inc.) as experimental animals; tissue CLEA Japan, Inc. KKAy/Ta Jcl; host or cells: living KKAy mice (whole animal; SGLT2 acts in kidney)
T1 sequence (Q923I7 1-670): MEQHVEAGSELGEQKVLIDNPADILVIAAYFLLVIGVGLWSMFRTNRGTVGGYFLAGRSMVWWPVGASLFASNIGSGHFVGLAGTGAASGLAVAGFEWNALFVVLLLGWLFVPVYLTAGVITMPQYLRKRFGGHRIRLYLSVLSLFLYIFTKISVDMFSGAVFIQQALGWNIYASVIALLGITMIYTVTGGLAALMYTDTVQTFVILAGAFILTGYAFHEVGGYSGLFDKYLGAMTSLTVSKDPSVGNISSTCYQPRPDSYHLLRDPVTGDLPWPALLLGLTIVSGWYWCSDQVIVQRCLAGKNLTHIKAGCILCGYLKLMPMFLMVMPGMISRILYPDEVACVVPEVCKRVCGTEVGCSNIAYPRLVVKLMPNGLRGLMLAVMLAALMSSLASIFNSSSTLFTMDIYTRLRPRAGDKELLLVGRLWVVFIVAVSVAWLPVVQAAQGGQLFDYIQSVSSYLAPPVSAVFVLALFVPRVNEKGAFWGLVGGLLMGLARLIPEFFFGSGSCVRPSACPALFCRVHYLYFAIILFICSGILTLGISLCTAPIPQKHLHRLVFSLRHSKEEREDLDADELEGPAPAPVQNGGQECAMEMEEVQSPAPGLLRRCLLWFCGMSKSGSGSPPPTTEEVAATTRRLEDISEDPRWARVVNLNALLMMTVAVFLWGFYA
Description: Using KKA^y mice (KKAy/Ta Jcl, CLEA Japan, Inc.) as experimental animals, inhibitory effects on accumulation of lipids in liver based on SGLT2 inhibitory effects were evaluated. KKA^y mice bearing fatty liver were prepared as follows.
Female 10-week-old KKA^y mice were bred preparatorily for 4 weeks. During preparatory breeding until 4 days before grouping, the mice were fed on a pellet CE-2 diet for laboratory animal (CLEA Japan, Inc.) under free feeding. From 4 days before grouping, the food was changed to a powdered CE-2 diet for laboratory animal (CLEA Japan, Inc.). At the age of 14 weeks, body weight, blood glucose level and plasma alanine aminotransferase level (ALT) were measured for grouping. The mice were grouped (5 animals in each group) so that in any of these three laboratory values no significant difference was observed between the two groups. In the second group, the mice were fed on a powdered CE-2 diet for laboratory animal (CLEA Japan, Inc.) containing 1000 ppm of 2-(4-methoxybenzyl)phenyl 6-O-ethoxycarbonyl-β-D-glucopyranoside (hereinafter referred to as Compound A) as a SGLT2 inhibitor for 11 days, and then triglyceride contents in liver were measured.
Method of measurement of liver triglyceride content was described as follows. • 1) Ice-cold saline (Otsuka Pharmaceutical Co., Ltd.) was added to liver in the proportion of 4 mL of ice-cold saline to 1 g of the liver, and then a homogenized suspension was prepared in a pestle homogenizer. • 2) To 100 μL of the suspension 1), 800 μL of Folch reagent (chloroform:methanol=2:1) was added and mixed vigorously, and total lipids was extracted. • 3) The mixture 2) was centrifuged (3000 rpm, for 10 min, at room temperature) using a cooled centrifuge (KUBOTA8900, KUBOTA Corporation). • 4) The lower layer after centrifugation in 3) was collected and transferred to another container, and that is referred to as Solution (A). • 5) To the upper layer after centrifugation in 3), 150 μL of Folch reagent was added and mixed vigorously, and centrifugation by the operation identical to that in 3) was performed. […]

[2] = cited from earlier work

lipid accumulation in liver ([1]; administration to KKA^y mice bearing fatty liver, compared to drug-untreated mice): significantly suppressed | Liver triglyceride content ([1]; female KKA^y mice bearing fatty liver, diet containing 1000 ppm for 11 days, mean ± standard error of the mean, * significant (5% or less) vs drug-untreated group): 25.4 ± 3.6* mg/g liver | increase of lipid accumulative amount in liver ([1]; orally administered to rat (so in the source), in comparison with no administration): inhibited significantly
Compound: CCOC(=O)OC[C@H]1O[C@@H](Oc2ccccc2Cc2ccc(OC)cc2)[C@H](O)[C@@H](O)[C@@H]1O [Compound A, 2-(4-methoxybenzyl)phenyl 6-O-ethoxycarbonyl-β-D-glucopyranoside]

Compound: CCOC(=O)C(C)(C)Oc1ccc(Cl)cc1 [clofibrate]
lipid accumulation in liver as a side effect ([2]; Patent Reference 22, while it lowers neutral fat or cholesterol in blood): causes lipid accumulation in liver

Compound: CCCCNC(=O)NS(=O)(=O)c1ccc(C)cc1 [tolbutamide]
suppressive effects on lipid accumulation in liver ([2]; non-Patent Reference 7): does not exhibit suppressive effects
